In patent EP2276483B1, “SOLID FORMS COMPRISING (+)-2-[1-(3-ETHOXY-4-METHOXYPHENYL)-2-METHYLSULFONYLETHYL]-4-ACETYLAMINOISOINDOLINE-1,3-DIONE, COMPOSITIONS THEREOF, AND USES THEREOF” (CELGENE CORPORATION, priority 2008, dated 2009):

Columns and labels:
cAMP = experiment: PGE2-induced cAMP elevation in human PBMC; type: cell-based; conditions: PGE2 (10µM)
Protocol: Prostaglandin E2 (PGE2) binds to prostanoid receptors on monocytes, T cells and other leukocytes and consequently elevates intracellular cAMP levels, resulting in inhibition of cellular responses. The combination of PGE2 and a PDE4 inhibitor synergistically elevates cAMP levels in these cell types, and the elevation of cAMP in PBMC caused by PDE4 inhibitors in the presence of PGE2 is proportional to the inhibitory activity of that PDE4 inhibitor. Intracellular cAMP was measured in human PBMC as follows. PBMC were isolated as described above and plated in 96-well plates at 1 x 10^6 cells per well in RPMI-1640. The cells were pre-treated with compounds at 100, 10, 1, 0.1, 0.01, and 0 µM in a final concentration of 2% DMSO in duplicate at 37°C in a humidified incubator at 5% CO2 for one hour. The cells were then stimulated with PGE2 (10µM) (Sigma) for 1h. The cells were lysed with HCl, 0.1 N final concentration to inhibit phosphodiesterase activity and the plates were frozen at -20°C. The cAMP produced was measured using cAMP (low pH) Immunoassay kit (R&D Systems).

CD18 = experiment: fMLF-induced CD18 expression on neutrophils; type: cell-based; conditions: Neutrophil; human neutrophils; 30 nM fMLF
Protocol: CD18/CD11b (Mac-1) expression on neutrophils was measured as previously described (Derian et al., 1995, J. Immunol., 154:308-3 17) with the following modifications. Neutrophils were isolated as described above, then resuspended in complete medium at 1x10^6 cells/ml, pretreated with compounds at 10, 1, 0.1, 0.01, and 0 µM in duplicate at a final DMSO concentration of 0.1% for 10 minutes at 37°C 5%CO2. Cells were then stimulated with 30 nM fMLF for 30 minutes and then chilled to 4°C. Cells were treated with rabbit IgG (Jackson ImmunoResearch Labs, West Grove, PA, USA) (10 µg/1x10^6 cells) to block Fc receptors, stained with CD18-FITC and CD11b-PE (Becton Dickinson), and analyzed by flow cytometry on a FACSCalibur. CD18/CD11b expression (mean fluorescence) in the absence of stimulation was subtracted from all samples to obtain inhibition curves and calculate IC50 values.

conscious ferret = experiment: Emesis and behavioral changes in conscious ferret; type: in vivo, ferrets (Mustela Pulorius Euro); conditions: for Ataxia / Backward walking / Flattened posture / Lip licking / Mouth clawing / Panting / Retches / Salivation / Vomits: severity (number of animals that responded)
Protocol: The conscious ferret model has been used to investigate anti-inflammatory, emetic and behavioral effects of PDE4 inhibitors when administered by the oral (p.o.) route. From these experiments, a therapeutic index (TI) for each PDE4 inhibitor may be determined. The TI has been calculated by dividing the threshold dose for causing emetic episodes and behavioral changes by the anti-inflammatory dose (dose that causes 50% inhibition of the LPS-induced neutrophilia).
PDE4 inhibitors were administered orally (p.o.), at doses initially of […], but subsequently up to 30 mg/kg in order to establish whether the TI was 10 or higher, and/or at lower doses to establish the minimum dose to cause 50% inhibition of neutrophilia. Ferrets were fasted overnight but allowed free access to water. The animals were orally dosed with vehicle or PDE4 inhibitor using a 15 cm dosing needle that was passed down the back of the throat into the oesophagus. After dosing, the animals were returned to holding cages fitted with Perspex doors to allow observation, and given free access to water. After dosing, the animals were constantly observed and any emesis or behavioral changes were recorded. The animals were allowed access to food 60 to 90 minutes after p.o. dosing.
Thirty minutes after p.o. dosing with compound or vehicle control, the ferrets were placed into sealed Perspex containers and exposed to an aerosol of LPS (100 µg/ml) for 10 minutes. Aerosols of LPS were generated by a nebulizer (DeVilbiss, USA) and this was directed into the Perspex exposure chamber. Following a 10 minute exposure period, the animals were returned to the holding cages and allowed free access to water, and at a later stage, food. Observation continued for a period of at least 2.5 hours post p.o. dosing and emetic episodes and behavioral changes were recorded.
2. Emetic episodes - the number of vomits and retches were counted.
3. Behavioral changes - the following behavioral effects were noted: salivation, panting, mouth clawing, flattened posture, ataxia, arched back and backward walking. Any behavioral changes were semi-quantified by applying a severity rating (mild, moderate or severe).
4. The TI was calculated as the highest dose found to not cause emetic episodes divided by the lowest dose found to inhibit pulmonary neutrophilia by 50% or more.
Numbers in parentheses refer to the number of animals that responded. The numbers of animals in each group range from 4 to 22.
From these experiments, a therapeutic index (TI) was determined for each compound by dividing the threshold dose for inducing emetic episodes by the ED50 value for inhibiting the pulmonary neutrophilia. […] Table 4. Summary of the effective doses (ED50) for inhibition of LPS-induced pulmonary neutrophilia and induction of emesis and the therapeutic index derived from these values

CCOc1cc(C(CS(C)(=O)=O)N2C(=O)c3cccc(NC(C)=O)c3C2=O)ccc1OC (single isomer, unassigned; (+)) [Compound A, (+)-2-[1-(3-ethoxy-4-methoxyphenyl)-2-methylsulfonylethyl]-4-acetylaminoisoindoline-1,3-dione]
EC50 (cAMP): 1580 nM
IC50 (CD18): 390 nM
Ataxia (conscious ferret; 0.1 mg/kg oral): None
Backward walking (conscious ferret; 0.1 mg/kg oral): Mild (3/5)
Flattened posture (conscious ferret; 0.1 mg/kg oral): Mild (2/5)
Lip licking (conscious ferret; 0.1 mg/kg oral): Mild (4/5)
Mouth clawing (conscious ferret; 0.1 mg/kg oral): None
Panting (conscious ferret; 0.1 mg/kg oral): None
Retches (conscious ferret; 0.1 mg/kg oral): None
Salivation (conscious ferret; 0.1 mg/kg oral): None
Vomits (conscious ferret; 0.1 mg/kg oral): None
Ataxia (conscious ferret; 0.3 mg/kg oral): None
Backward walking (conscious ferret; 0.3 mg/kg oral): Mild (4/6)
Flattened posture (conscious ferret; 0.3 mg/kg oral): Mild (2/6)
Lip licking (conscious ferret; 0.3 mg/kg oral): Mild (3/6)
Mouth clawing (conscious ferret; 0.3 mg/kg oral): None
Panting (conscious ferret; 0.3 mg/kg oral): None
Retches (conscious ferret; 0.3 mg/kg oral): None
Salivation (conscious ferret; 0.3 mg/kg oral): None
Vomits (conscious ferret; 0.3 mg/kg oral): None
Ataxia (conscious ferret; 1.0 mg/kg oral): None
Backward walking (conscious ferret; 1.0 mg/kg oral): Mild (4/6)
Flattened posture (conscious ferret; 1.0 mg/kg oral): Mild (2/6)
Lip licking (conscious ferret; 1.0 mg/kg oral): Mild (6/6)
Mouth clawing (conscious ferret; 1.0 mg/kg oral): None
Panting (conscious ferret; 1.0 mg/kg oral): None
Retches (conscious ferret; 1.0 mg/kg oral): None
Salivation (conscious ferret; 1.0 mg/kg oral): None
Vomits (conscious ferret; 1.0 mg/kg oral): None
Ataxia (conscious ferret; 3.0 mg/kg oral): None
Backward walking (conscious ferret; 3.0 mg/kg oral): Moderate (5/8)
Flattened posture (conscious ferret; 3.0 mg/kg oral): Marked (7/8)
Lip licking (conscious ferret; 3.0 mg/kg oral): Mild (2/8)
Mouth clawing (conscious ferret; 3.0 mg/kg oral): Mild (1/8)
Panting (conscious ferret; 3.0 mg/kg oral): None
Retches (conscious ferret; 3.0 mg/kg oral): None
Salivation (conscious ferret; 3.0 mg/kg oral): None
Vomits (conscious ferret; 3.0 mg/kg oral): None
Ataxia (conscious ferret; 10 mg/kg oral): None
Backward walking (conscious ferret; 10 mg/kg oral): Marked (6/6)
Flattened posture (conscious ferret; 10 mg/kg oral): Marked (6/6)
Lip licking (conscious ferret; 10 mg/kg oral): Moderate (5/6)
Mouth clawing (conscious ferret; 10 mg/kg oral): Mild (1/6)
Panting (conscious ferret; 10 mg/kg oral): None
Salivation (conscious ferret; 10 mg/kg oral): Mild (1/6)
Vomits (conscious ferret; 10 mg/kg oral): None
behavioral changes (severity) (conscious ferret; 10 mg/kg, p.o.): mild or moderate
emetic episodes (retching and vomiting) (conscious ferret; 10 mg/kg, p.o., in 2/6 ferrets): some retching but no frank emesis
Ataxia (conscious ferret; 30 mg/kg oral): Mild (3/4)
Backward walking (conscious ferret; 30 mg/kg oral): Mild (2/4)
Flattened posture (conscious ferret; 30 mg/kg oral): Marked (4/4)
Lip licking (conscious ferret; 30 mg/kg oral): Moderate (4/4)
Mouth clawing (conscious ferret; 30 mg/kg oral): Marked (4/4)
Panting (conscious ferret; 30 mg/kg oral): Mild (1/4)
Retches (conscious ferret; 30 mg/kg oral): Marked (3/4)
Salivation (conscious ferret; 30 mg/kg oral): Moderate (3/4)
Vomits (conscious ferret; 30 mg/kg oral): Moderate (3/4)
behavioral changes (severity) (conscious ferret; 30 mg/kg, p.o.): pronounced behavioral changes
emetic episodes (retching and vomiting) (conscious ferret; 30 mg/kg, p.o., in 3/4 animals): moderate to marked emesis
emetic episodes (retching and vomiting) (conscious ferret; 0.1-3 mg/kg, p.o.): no emetic episodes
behavioral changes (severity) (conscious ferret; 0.1-3 mg/kg, p.o., flattened posture, lip licking and backward walking): mild
Threshold emetic dose (conscious ferret; conscious ferret, p.o.): 10 mg/kg
Therapeutic index (conscious ferret; threshold emetic dose divided by ED50 for pulmonary neutrophilia): 12
